Experimental data from US12594268B2, “Methods of treating Fabry disease in patients having a mutation in the GLA gene” (Amicus Therapeutics, Inc., priority 2018, dated 2026).

Target: T1, α-Gal A mutant form Q250K (Homo sapiens, UniProt P06280, Q250K)
T1 construct: expressed in transfected cells; host or cells: HEK-293
T1 sequence (P06280 32-429 Q250K): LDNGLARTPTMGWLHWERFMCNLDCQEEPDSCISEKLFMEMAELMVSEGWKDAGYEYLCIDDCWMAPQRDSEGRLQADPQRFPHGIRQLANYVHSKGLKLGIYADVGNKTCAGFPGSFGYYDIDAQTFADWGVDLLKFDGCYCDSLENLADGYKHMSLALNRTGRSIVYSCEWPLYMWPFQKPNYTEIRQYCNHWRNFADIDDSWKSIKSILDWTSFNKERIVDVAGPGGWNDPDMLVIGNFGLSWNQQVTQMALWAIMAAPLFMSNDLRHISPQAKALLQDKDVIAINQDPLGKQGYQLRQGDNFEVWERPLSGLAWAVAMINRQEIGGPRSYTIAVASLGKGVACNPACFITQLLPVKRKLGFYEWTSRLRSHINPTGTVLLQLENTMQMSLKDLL
Experiment: α-Gal A activity in lysates of transfected HEK-293 cells, Q250K
Assay type: cell-based
Experimental: Baseline and 10 μM migalastat α-Gal A activity: Differences in the α-Gal A activity between lysates incubated in the absence and presence of 10 μM migalastat were determined using a one-tailed, Mann Whitney U test; an increase at 10 μM migalastat with a p<0.05 was considered significant.
10 μM migalastat α-Gal A activity (% WT)=(α-Gal A activity in mutant transfected cell lysates incubated with 10 μM migalastat÷α-Gal A activity in wild-type transfected cell lysates without migalastat)*100.
Absolute increase (% WT)=is the 10 μM migalastat α-Gal A activity (% WT) minus the baseline α-Gal A activity (% WT).
Relative increase is the 10 μM migalastat α-Gal A activity in mutant transfected cell lysates÷baseline α-Gal A activity in mutant transfected cell lysates incubated without migalastat.

Absolute increase (% WT) (10 μM migalastat minus baseline): 25.5 % WT
Relative increase (10 μM migalastat ÷ baseline activity): 2.58
10 nM migalastat α-Gal A activity (HEK-293 lysates, 10 nM migalastat as printed, 5 days, mean ± SEM): 11325 ± 1111 nmol/mg/h
10 μM migalastat α-Gal A activity (% WT) (HEK-293 lysates, 10 μM migalastat, 5 days, mean ± SEM): 41.6 ± 3.1 % WT
Structure (SMILES): OC[C@H]1NC[C@H](O)[C@@H](O)[C@H]1O [migalastat, (2R,3S,4R,5S)-2-(hydroxymethyl) piperdine-3,4,5-triol]
